Source: article PMC5689723, “Targeting aggressive prostate cancer-associated CD44v6 using phage display selected peptides” (Oncotarget, 2017)
Read-outs that look alike come from different tables or passages of the source. Ends that are not written are not given here. Peptide text beside a SMILES is read from it. * marks the point of attachment. Biotin = O=C1N[C@H]2[C@H](CS[C@H]2CCCCC(=O)*)N1

Columns and labels:
PC3M cells = assay: MTT assay, PC3M cells; assay type: cell-based; conditions: Homo sapiens, PC-3M, 48 h, 5000 cells per well, triplicate, 562 nm, P< 0.05 vs v6A3, read-out: DOX IC50 of PC3M
Procedure: To determine the dose response of drug-resistant PC3M1G4 cell lines, PC3M and v6A3 cells were seeded in triplicate in 96-well plates at 5000 cells per well and incubated for 24 h. A range of concentrations (1000, 100, 10, 1, 0.1, 0.01, 0.001, 0.0001 nM) of DOX in fresh medium were added to the cells. Control cells were treated with appropriate volumes of fresh medium. After 48 h, 20 μl of MTT (3-(4,5-dimethylthiazol-2-yl)-2,5-diphenyltetrazolium bromide) (5 mg/ ml) (Sigma-Aldrich, St. Louis, MO) was added to each well, followed by incubation at 37°C in 5% CO2 for 4 h. Subsequently, 100 μl of DMSO (Sigma-Aldrich, St. Louis, MO) was added and the plate was shaken for 20 min at RT to dissolve the formazan crystals. The optical density (absorbance units) was read at a wavelength of 562 nm on a μQuant Universal Microplate Spectrophotometer (Bio-Tek Instruments, Winooski, VT). The growth inhibition curve was generated using GraphPad Prism 6.0 software (GraphPad Software Inc., San Diego, CA). Absolute IC50 values were calculated using the log inhibitor vs. response curves for nonlinear regression.

SORE6-GFP^- cells = test system: SORE6-GFP^- cells; design: method as in PMID 22439924; conditions: treatment with doxorubicin; proportion of SORE6-GFP^+ cells increased dramatically; ref [41]; cited from earlier work
recombinant CD44v6-Fc = biological target: T1, recombinant CD44v6-Fc (Homo sapiens, UniProt P16070, DEL223-384/DEL429-575); assay: Peptide-Protein ELISA, recombinant CD44v6-Fc; assay type: binding; conditions: 2 h at RT, 490 nm; for binding to recombinant CD44v6-Fc (in words): biotinylated synthetic peptides, various concentrations, Figure 2C, 2D; for Kd: biotinylated peptide, CD44v6-Fc coated at 1 μg/ml, pH 9.6, 0.5% BSA in PBST, HRP-streptavidin, nonlinear regression, GraphPad Prism 6.0
T1 construct: the ECD of CD44 and CD44v6 protein were expressed as Fc-tagged proteins; made in house; host or cells: CHO-K1 cells, purified by protein A chromatography
T1 sequence (P16070 with tags, fused parts or gaps isoform P16070-7 DEL223-384/DEL429-575 limits assumed): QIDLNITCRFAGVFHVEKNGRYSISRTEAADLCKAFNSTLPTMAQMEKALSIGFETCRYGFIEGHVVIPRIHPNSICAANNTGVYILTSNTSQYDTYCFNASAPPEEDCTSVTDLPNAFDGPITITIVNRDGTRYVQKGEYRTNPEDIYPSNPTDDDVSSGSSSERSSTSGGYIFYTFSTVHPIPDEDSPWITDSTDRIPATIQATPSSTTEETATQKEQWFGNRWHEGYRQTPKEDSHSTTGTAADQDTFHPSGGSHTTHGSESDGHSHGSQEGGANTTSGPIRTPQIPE
From the text: Figure 2 Characterization of peptide binding to recombinant CD44v6 (A) Schematic of recombinant CD44v6-Fc and CD44-Fc expression construct. The number of constant exons (1-5 and 15-17) are marked. (B) SDS-PAGE analysis and immunoblotting of purified CD44v6-Fc and CD44-Fc (M, BioRad precision plus all blue prestained protein standard; lane 1, CD44v6-Fc; lane 2, CD44-Fc). For SDS-PAGE analysis, the purified proteins were detected by coomassie blue staining. For immunoblotting, the mouse anti-human Fc Ab or mouse anti-human v6 region specific mAb VFF18 was used as the primary Ab and HRP conjugated goat anti-mouse Ab was used as the secondary Ab. (C) ELISA analysis of the dose dependent recombinant CD44v6-Fc binding ability of four biotinylated peptides. […] The maximal ELISA absorbance value of PFT binding to CD44v6-Fc was used to normalize the binding signal of individual peptides. The specific binding curve was generated using GraphPad Prism 6.0 software and absolute Kd values were calculated using nonlinear regression. (D) The specificity of PFT binding to recombinant CD44v6-Fc. Different concentrations of PFT and its two scrambled peptide versions were incubated with immobilized CD44v6-Fc or CD44-Fc, respectively for ELISA analyses. The maximal ELISA absorbance value of PFT binding to CD44v6-Fc was used to normalize the binding signal of individual peptides. The specific binding curve was generated using GraphPad Prism 6.0 software.
An ELISA was performed to analyze the binding of synthesized biotinylated peptides to recombinant CD44-Fc or CD44v6-Fc. Briefly, 100 μl of recombinant protein at 1 μg/ml in 0.05 M carbonate/bicarbonate coating buffer (pH 9.6) was added to each well of a 96-well microtiter plate and coated for 24 h at 4°C. The plates were blocked with 1% BSA in PBST buffer (0.05% Tween 20 in PBS) and then incubated with 100 μl of peptides or antibodies at various concentrations in 0.5% BSA in PBST for 2 h at RT. After washing extensively for five times with PBST buffer, the plates were incubated with 100 μl of HRP-conjugated streptavidin (1:2000 diluted with 0.5% BSA in PBST buffer) for 1 h at RT. After washing five times with PBST buffer, the Sigma fast O-phenylenediamine dihydrochloride tablets (Sigma-Aldrich, St. Louis, MO) were used as substrates and the absorbance was measured at 490 nm using an endpoint assay on a μQuant Universal Microplate Spectrophotometer (Bio-Tek Instruments, Winooski, VT).
For binding analysis, the ECD of CD44 and CD44v6 protein were expressed as Fc-tagged proteins (Figure 2A). Exon numbering was performed according to the study of Screaton et al. The ECD of CD44 was engineered as an N-terminal constant sequence (exons 1–5) followed by a nonvariable stretch at the C-terminus (exons 15–17) (Figure 2A). […]

CD44v6 = assay: Immunohistofluorescence, human PCa tissue microarrays; conditions: T3N2M1 (grade III) TMA sample; 50 μM peptide; Figure 10C
VFF18 = conditions: amino acids 19-29 of the v6 domain; ref [55]; cited from earlier work
From the text: Affinity selection of phage displaying peptides typically involves passing the phage library over desired target molecules, such as protein biomarkers of cancer. In this study, we aimed to obtain peptides specific to the v6 region of human CD44v6, a putative aggressive cancer and/or CSC biomarker. However, the v6 region contains only 45 amino acids while the CD44v6-ECD consists of 290 amino acids. […] VFF18 is a murine mAb gene ...

Met signaling = conditions: v6 peptide derivative; ref [36]; cited from earlier work
[1] = test system: v6 region peptide (KEQWFGNRWHEGYR) of CD44v6; assay: Peptide-Peptide ELISA, v6 region peptide; assay type: binding, human; conditions: biotinylated peptides 10 μM, v6 and control peptides 2 μM on streptavidin plate; 25 mM Tris pH 7.2, 150 mM NaCl, 0.1% BSA, 0.05% Tween-20; 2 h at RT; 490 nm; Figure 1D
[2] = biological target: CD44v6-Fc ECD (exons 1-5, v6 exon 10, exons 15-17) (Homo sapiens), P16070; assay: ELISA; conditions: N-terminal biotin on peptide, Fc fusion of CD44v6
CD44v6-Fc ECD (exons 1-5, v6 exon 10, exons 15-17) (Homo sapiens), P16070, sequence (P16070 whole entry, looked up, change not shown, the tested form may be a part): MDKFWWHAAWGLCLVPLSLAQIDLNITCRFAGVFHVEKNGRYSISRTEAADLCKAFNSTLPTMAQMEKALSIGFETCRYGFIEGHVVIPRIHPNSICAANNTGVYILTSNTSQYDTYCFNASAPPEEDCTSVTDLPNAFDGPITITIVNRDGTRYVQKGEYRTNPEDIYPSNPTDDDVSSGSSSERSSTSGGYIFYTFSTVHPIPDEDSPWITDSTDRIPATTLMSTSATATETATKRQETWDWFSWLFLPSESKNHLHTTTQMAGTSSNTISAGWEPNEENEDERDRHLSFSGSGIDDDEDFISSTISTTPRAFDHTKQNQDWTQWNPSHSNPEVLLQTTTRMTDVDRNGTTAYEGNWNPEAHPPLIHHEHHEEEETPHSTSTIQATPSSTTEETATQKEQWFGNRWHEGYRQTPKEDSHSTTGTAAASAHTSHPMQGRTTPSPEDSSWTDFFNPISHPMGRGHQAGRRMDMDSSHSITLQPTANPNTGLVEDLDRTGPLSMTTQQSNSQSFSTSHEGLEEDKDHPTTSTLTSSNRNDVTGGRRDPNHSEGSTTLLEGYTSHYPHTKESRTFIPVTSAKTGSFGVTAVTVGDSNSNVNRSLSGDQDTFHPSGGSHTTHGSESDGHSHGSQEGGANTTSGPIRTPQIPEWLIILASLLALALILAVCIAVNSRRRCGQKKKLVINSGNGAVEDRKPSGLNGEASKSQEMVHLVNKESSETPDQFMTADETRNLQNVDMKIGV

Molecule: COc1cccc2c1C(=O)c1c(O)c3c(c(O)c1C2=O)C[C@@](O)(C(=O)CO)C[C@@H]3O[C@H]1C[C@H](N)[C@H](O)[C@H](C)O1 [DOX, doxorubicin]
- IC50 (PC3M cells): 51.6 nM
- cell death among SORE6-GFP^- cells on DOX treatment (in words) (SORE6-GFP^- cells): extensive cell death was observed among SORE6-GFP^- cells

Molecule: VTPVFSFATPNFVDW [scr1]
- binding to recombinant CD44v6-Fc (in words) (recombinant CD44v6-Fc): negligible binding to CD44v6-Fc
- staining of PCa tissue by scrambled peptide (in words) (CD44v6): no staining

Molecule: WFGNRWHEGYR [peptide corresponding to amino acids 19-29 of the v6 domain]
- epitope for VFF18 binding (in words) (VFF18): minimum sequence required for high-affinity binding of VFF18

Molecule: KEQWFGNRWHEGYR [selection target]
- inhibition of Met signaling (in words) (Met signaling): inhibited Met signaling

Molecule: CC(C)[C@H](NC(=O)[C@H](CO)NC(=O)[C@H](CO)NC(=O)[C@@H](NC(=O)[C@H](CCCNC(=N)N)NC(=O)[C@@H]1CCCN1C(=O)CNC(=O)[C@H](C)NC(=O)[C@H](Cc1c[nH]c2ccccc12)NC(=O)CNC(=O)[C@H](CO)NC(=O)CNC(=O)CCCC[C@@H]1SC[C@@H]2NC(=O)N[C@@H]21)C(C)C)C(=O)N[C@@H](Cc1ccc(O)cc1)C(=O)N[C@@H](Cc1ccc(O)cc1)C(=O)N[C@@H](C)C(=O)NCC(=O)N[C@@H](C)C(=O)N[C@@H](CCCNC(=N)N)C(=O)O [WAG] (Biotin-GSGWAGPRVSSVYYAGAR-OH)
- Kd (recombinant CD44v6-Fc; read-out: apparent affinity (Kd) to recombinant CD44v6): 8670 ± 1850 nM

Molecule: Biotin-GSG-SAYDRPL (Biotin-GSGSAYDRPL)
- binding of synthetic peptides to v6 region peptide compared to control peptide (in words) [1]: increased binding to v6 region peptide compared to control peptide

Molecule: Biotin-GSG-WSNKGYD
- binding of synthetic peptides to v6 region peptide compared to control peptide (in words) [1]: increased binding to v6 region peptide compared to control peptide

Molecule: CC(C)[C@H](NC(=O)[C@H](Cc1ccccc1)NC(=O)[C@@H]1CCCN1C(=O)[C@@H](NC(=O)[C@H](CO)NC(=O)[C@@H](NC(=O)[C@@H](NC(=O)[C@H](Cc1ccccc1)NC(=O)[C@@H]1CCCN1C(=O)CNC(=O)[C@H](CO)NC(=O)CNC(=O)CCCC[C@@H]1SC[C@@H]2NC(=O)N[C@@H]21)[C@@H](C)O)C(C)C)C(C)C)C(=O)N[C@@H](Cc1c[nH]c2ccccc12)C(=O)N[C@@H](CC(N)=O)C(=O)N[C@@H](Cc1ccccc1)C(=O)N[C@H](C(=O)N[C@@H](C)C(=O)N[C@@H](CC(=O)O)C(=O)O)[C@@H](C)O [PFT] (Biotin-GSGPFTVSVPFVWNFTAD-OH)
- Kd (recombinant CD44v6-Fc; read-out: apparent affinity (equilibrium dissociation constant, Kd) to recombinant CD44v6): 743 ± 153 nM

Molecule: VSVWFVTANFPPFTD [scr2]
- binding to recombinant CD44v6-Fc (in words) (recombinant CD44v6-Fc): negligible binding to CD44v6-Fc

Molecule: Biotin-GSGWAGPRVSSVYYAGAR [WAG]
- Kd [2]: 8670 nM

Molecule: Biotin-GSGPFTVSVPFVWNFTAD [PFT]
- Kd [2]: 743 nM
